Data from article PMC11483378, “Triazole-Based Thiamine Analogues as Inhibitors of Thiamine Pyrophosphate-Dependent Enzymes: 1,3-Dicarboxylate for Metal Binding” (ACS Omega, 2024).
Where “and” joins values, the source holds several entries; their conditions need not be identical. Equal entries are not always repeated. Where two headings read alike, the source gives them in different places.

What was measured:
porcine liver esterase = test: Esterase treatment with UPLC-HRMS analysis; format: in vitro ADME
Experimental: Esters 13b and 15b were subjected to esterase treatment (porcine liver esterase) at 37 °C and pH 7.4 for 2 h, and then the reaction mixtures were analyzed using UPLC-HRMS (Figure 4).[24] The molecular mass of the new products formed was determined by MS and confirmed that they were the expected carboxylic acids. […] The second hydrolysis is presumably slower because the substrate 17 is anionic, whereas for the first hydrolysis, the substrate 13b is neutral.[19],[25],[26] When 13b enters a cell through passive diffusion, the intracellular esterases will begin to hydrolyze the ester groups to give first 17 and then 14b. Since both 17 and 14b are negatively charged under physiological conditions, they will be unable to diffuse back out of the cell and so should accumulate there.[27] Diester 13b is more hydrophobic than triazole hydroxamate 4 (c Log D: 0.8 vs −0.5) and so should diffuse into cells more readily. […] Thus, we anticipate that 13b will be as useful as 4 in probing the role of vitamin B1 in cells.
Figure 4 UPLC-HRMS analysis of the esterase treatment. […] Compound (retention time/min): diester 13b (1.30), dicarboxylate 14b (0.51), monoester 15b (0.99), monocarboxylate 16b (0.51), and intermediate 17 (0.67).

TPP-dependent enzymes = test: Inhibition / relative affinity across the TPP-dependent enzymes (PDH E1, PDC, PO, OGDH E1); format: biochemical; conditions: comparison of relative affinities
Excerpt: The different biochemical reactions catalyzed, preferred substrates (Table S1), and primary sequences reflect the structurally and functionally diverse members of the family. […] However, as the inhibitors are TPP-competitive, what really matters is the affinity of each inhibitor relative to the affinity of TPP for that particular enzyme.

S. cerevisiae PDC = target: T1, S. cerevisiae PDC (Saccharomyces cerevisiae, UniProt P06169); test: S. cerevisiae PDC inhibitory activity assay (DCPIP reduction); format: biochemical; conditions: for % Inhibition (5:1): [Compound] = 750 μM, [TPP] = 150 μM; for inhibition at 750 µM: [Compound] = [TPP] = 750 μM, read-out: % Inhibition (1:1)
T1 construct: purchased Sigma
T1 sequence (P06169 2-563 limits assumed): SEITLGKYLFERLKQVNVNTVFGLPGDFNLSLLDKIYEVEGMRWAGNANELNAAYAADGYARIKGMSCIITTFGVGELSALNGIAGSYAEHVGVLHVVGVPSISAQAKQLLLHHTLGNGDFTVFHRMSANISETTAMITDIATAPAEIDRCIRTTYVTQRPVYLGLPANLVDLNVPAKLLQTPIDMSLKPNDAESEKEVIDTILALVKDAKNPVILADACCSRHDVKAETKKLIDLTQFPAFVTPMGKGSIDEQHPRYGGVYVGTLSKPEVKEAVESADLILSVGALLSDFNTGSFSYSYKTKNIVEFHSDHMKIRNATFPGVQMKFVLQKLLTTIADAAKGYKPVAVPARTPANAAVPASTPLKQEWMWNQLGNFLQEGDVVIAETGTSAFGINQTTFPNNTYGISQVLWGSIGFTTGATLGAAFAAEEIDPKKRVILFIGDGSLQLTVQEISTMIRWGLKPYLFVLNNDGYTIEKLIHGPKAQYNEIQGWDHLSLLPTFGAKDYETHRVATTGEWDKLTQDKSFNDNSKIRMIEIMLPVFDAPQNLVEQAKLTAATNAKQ
Experimental: S. cerevisiae PDC was purchased from Sigma. S. cerevisiae PDC activity was determined by monitoring DCPIP reduction at 600 nm using a microplate reader (CLARIOstar) and conducted as described[5] with some modifications. […] The reaction buffer (50 mM KH2PO4 and 1 mM MgCl2, pH 7) contained TPP at specified concentrations, 0.27 mM DCPIP, and 0.15 mg/mL S. cerevisiae PDC. The reaction mixture was preincubated at 37 °C with the inhibitor for 60 min, and then the reaction was initiated by adding pyruvate to a final concentration of 70 mM. […] Specific activity was calculated using the molar extinction coefficient of DCPIP, 21 mM^–1 cm^–1.[28] The IC50 values were calculated from nonlinear regression curve fitting using GraphPad Prism.
Enzyme inhibitory activity assays – methods and results (Figures S1-4) […]
The compound […]
S. cerevisiae PDC inhibitory activity assay. S. cerevisiae PDC was purchased from Sigma. S. cerevisiae PDC activity was determined by monitoring DCPIP reduction at 600 nm using a microplate reader (CLARIOstar) and conducted as described3 with some modifications. The percentage inhibition of compounds against S. cerevisiae PDC was assayed at 750 μM. The reaction buffer (50 mM KH 2PO4 and 1 mM MgCl2, pH 7) contained TPP at specified concentrations, 0.27 mM DCPIP, and 0.15 mg/ml S. cerevisiae PDC. The reaction mixture was preincubated at 37 °C with the inhibitor for 60 min, then reaction was initiated by adding pyruvate to a final concentration of 70 mM. To determine the IC50, TPP concentration was set at 150 µM with varying inhibitor concentrations. Specific activity was […]
calculated from non-linear regression curve fitting using GraphPad Prism. […]

[1] = calculated from KM(TPP) 15 µM using [TPP]/IC50 = KM(TPP)/KI
[2] = read-out: IC50 (μM ± SEM), [TPP] = 150 µM

Row | Structure (SMILES) | outcome of esterase treatment (porcine liver esterase; 37 °C, pH 7.4, 2 h) | outcome of esterase treatment (porcine liver esterase; after 24 h) | affinities, fold lower than those of 14b (TPP-dependent enzymes) | IC50 (S. cerevisiae PDC) | Ki (S. cerevisiae PDC) | % Inhibition (5:1) (S. cerevisiae PDC) | inhibition at 750 µM (S. cerevisiae PDC) | vs TPP: affinity of the compound relative to that of TPP (= [TPP]/IC50) (S. cerevisiae PDC; [TPP] = 150 µM) | Ki (S. cerevisiae PDC; [1]) | IC50 (S. cerevisiae PDC; [2])
1 | COC(=O)C(CCCc1cn(Cc2cnc(C)nc2N)nn1)C(=O)OC [13b] | the major product was monoester monocarboxylate 17 | the only product seen was dicarboxylate 14b | approximately 3 fold | 713 ± 139 µM | 71 µM | 52 ± 3% | 21 ± 5% | 0.21 |  | 
2 | COC(=O)C(CCc1cn(Cc2cnc(C)nc2N)nn1)C(=O)OC [13a] |  |  |  | 939 ± 167 µM | 94 µM | 40 ± 4% | < 20% | 0.16 |  | 
3 | Cc1ncc(Cn2cc(CCCC(=O)[O-])nn2)c(N)n1.[K+] [16a] |  |  |  |  |  | 55 ± 4% | 24 ± 4% | 0.26 | 58 µM | 582 ± 88 µM
4 | COC(=O)CCCc1cn(Cc2cnc(C)nc2N)nn1 [15a] |  |  |  | 883 ± 144 µM | 88 µM | 42 ± 3% | < 20% | 0.17 |  | 
5 | COC(=O)CCCCc1cn(Cc2cnc(C)nc2N)nn1 [15b] | completely hydrolyzed into monocarboxylate 16b |  |  | 789 ± 167 µM | 79 µM | 47 ± 4% | < 20% | 0.19 |  | 
6 | Cc1ncc(Cn2cc(CCCC(C(=O)[O-])C(=O)[O-])nn2)c(N)n1.[K+].[K+] [14b] |  |  |  |  |  | 79 ± 3% | 42 ± 3% | 0.7 and 0.71 | 21 µM | 211 ± 39 µM
7 | Cc1ncc(Cn2cc(CCC(C(=O)[O-])C(=O)[O-])nn2)c(N)n1.[K+].[K+] [14a] |  |  |  |  |  | 70 ± 2% | 31 ± 3% | 0.47 | 32 µM | 319 ± 57 µM
8 | Cc1ncc(Cn2cc(CCCCC(=O)[O-])nn2)c(N)n1.[K+] [16b] |  |  | approximately 3 fold |  |  | 60 ± 4% | 25 ± 5% | 0.30 | 50 µM | 503 ± 76 µM
